Laboratory results published in paper PMC11157491, “Novel Alaninamide Derivatives with Drug-like Potential for Development as Antiseizure and Antinociceptive Therapies—In Vitro and In Vivo Characterization” (ACS Chemical Neuroscience, 2024).
Read-outs that look alike come from different tables or passages of the source.

Legend:
[1] = test system: mice; test: 6 Hz (32 mA) psychomotor seizure model; type: in vivo; details: Mus musculus, ip; for responders at 100 mg/kg: 100 mg/kg i.p., 0.5 h; for ED50: mice, pretreatment 0.5 h
Text: Identification and profiling of new ASM candidate compounds are still largely based on predictive animal models of seizures/epilepsy, while a range of in silico and in vitro approaches (i.e., molecular modeling or high throughput screening, etc.) are increasingly used in the early stages of ASM discovery.[31] The Epilepsy Therapy Screening Program (ETSP) of the National Institute of Neurological Disorders and Stroke (NIH, Bethesda, MD) has enabled the discovery of several approved ASMs by focusing on the in vivo testing of compounds synthesized by both academic laboratories and industry.[32] The ETSP provides a broad panel of seizure tests (ca. 30 rodent models), but a subset of them is used for the initial screening of new compounds with potential antiseizure activity. The routinely used seizure models include: (i) the MES test, which is an experimental model of tonic–clonic seizures, (ii) the 6 Hz model (32 mA) of focal seizures, and (iii) the scPTZ model of generalized absence or myoclonic seizures.[33],[34] Consequently, in the current studies, all final compounds 21–36 and 45–48 were initially studied in the MES and the 6 Hz (32 mA) seizure models after intraperitoneal (i.p.) administration at a screening dose of 100 mg/kg in mice at a time point of 0.5 h (the screening group consisted of four mice, and the results obtained are summarized in Table S1).
These parameters were then used to calculate the protective indexes (PIs, PI = TD50/ED50), which describe the therapeutics window of potential drug candidates. The ED50, TD50, and PI values for the tested compounds together with data of their chemical prototypes KA-11 and KJ-5 and reference ASMs are summarized in Table 2.
The adult male Albino Swiss mice weighed between 22 and 26 g were used in the in vivo studies. They were housed under standardized housing conditions in colony cages and had free access to food as well as tap water. The animals were left to adapt under laboratory conditions for 7 days. All procedures involving animals and their care were performed in accordance with the current European Community and Polish legislation on animal experimentation.
In the initial screening studies, four mice per group were randomly assigned to each experimental group (each mouse was used only once). To evaluate the ED50 or TD50 values, four groups consisting of eight animals were injected with various doses of tested compounds. The protective indexes (PIs) for the compounds investigated and reference ASMs were calculated by dividing the TD50 value, as determined in the chimney test, by the respective ED50 value, as determined in the MES, scPTZ, or 6 Hz (32 or 44 mA) tests (PI = TD50/ED50). The PIs are a measure of the potential therapeutic window of the tested agent.
All substances were suspended in Tween 80 (1% aqueous solution) and administered i.p. as a single injection at a dose of 10 mL/kg. On each day of experimentation, fresh solutions were prepared. The detailed in vivo procedures are described elsewhere: the maximal electroshock seizure test (MES),[60] the subcutaneous pentylenetetrazole seizure test (scPTZ),[61] the 6 Hz psychomotor seizure model (32 and 44 mA),[62] and the chimney test.[63] The reference ASMs were purchased from commercial suppliers: VPA (Sigma-Aldrich, St. Louis, MO), LCS, and LEV (UCB Pharma, Braine l’Alleud, Belgium).

[2] = test system: mice; test: Timed ivPTZ seizure threshold test; type: in vivo; details: 50 mg/kg i.p.
Text: The timed intravenous (iv) PTZ-induced seizure test was used to characterize the acute effect of compounds 26 and 28 on the thresholds for myoclonic, clonic, and tonic seizure in mice (Figure 2). It is noteworthy that the ivPTZ seizure test is a very sensitive method for determining the compounds’ effects on seizure threshold in rodents.[35] […] In the ivPTZ seizure test, bilateral forelimb tonic extension is usually quickly followed by hindlimb tonic extension and death due to respiratory arrest. […] In mice with no forelimb tonus, PTZ infusion was stopped after 180 s and the threshold dose of PTZ (in mg/kg) was calculated in those mice taking 180 s as infusion duration.
Figure 2 Acute effects of compounds 26 (A) and 28 (B) on seizure thresholds in the timed ivPTZ seizure test in mice. Both compounds were administered i.p. at a dose of 50 mg/kg, 30 min before the test. Control animals received vehicle. Data are presented as means (mg/kg PTZ) ± SEM (n = 9–13 animals). The statistical significance was evaluated by a Student’s t-test: *p < 0.05, **p < 0.01, ***p < 0.001, and ****p < 0.0001, as compared to the vehicle-treated group (GraphPad Prism 8).
In studies assessing the acute effect of compounds 26 and 28 on the ivPTZ seizure threshold and neuromuscular strength, the compounds were suspended in a 1% solution of Tween 80 and administered i.p., at a dose of 50 mg/kg of body weight, 30 min before the tests. The experimental procedures of the timed ivPTZ test and the grip strength test were described in detail elsewhere.[64]
Data from the ivPTZ test and the grip strength test were analyzed using Student’s t-test.

[3] = test system: Na^+ channel (site 2); test: Na+ channel (site 2) radioligand binding; details: 100 μM, rat cerebral cortex
Method: Importantly, sodium or calcium conductance is often associated with the pathophysiology of epilepsy as well as neuropathic pain.[46]−[50] Therefore, both sodium and calcium ion channels are well-established molecular targets for structurally diverse ASMs such as LCS, lamotrigine, carbamazepine, oxcarbazepine, etc.[51] Consequently, we carried out binding and/or functional studies toward the sodium channel (site 2) and calcium Cav1.2 channel at high concentrations (100 μM) of 26 and 28 (Table 5). […] Next, 26 and 28 due to the presence of the phenylpiperazine moiety, which is a well-recognized pharmacophore for serotoninergic receptor (5-HTxR) ligands,[52] were evaluated for their influence on 5-HT2CR, where stimulation plays a key role for the antiseizure activity of lorcaserin (one of the newest ASMs).[6]
Binding/functional studies were carried out commercially in Eurofins Laboratories (Poitiers, France) and Eurofins Panlabs Discovery Services Taiwan, Ltd. (New Taipei City, Taiwan) using testing procedures that were reported previously (for details, see Table S2).
Table S2. Radioligand binding and functional assays. […]
Assays were performed commercially in Eurofins Laboratories ( Poitiers, France) or Eurofins Panlabs Discovery Services
Taiwan, Ltd. (New Taipei City, Taiwan).

[4] = test system: human liver microsomes (HLMs); test: Metabolic stability in human liver microsomes; type: in vitro ADME
Text: Molecular mass Molecular mass of the
Substrate (m/z) metabolite (m/z) Metabolic pathway
* Reference unstable drug; metabolic stability determined using the same procedure published previously

[5] = test system: human serum albumin (HSA) and α1-acid glycoprotein (AGP)
[6] = four mice, read-out: protection in 6 Hz (32 mA) screening
[7] = read-out: 6 Hz (32 mA): number of mice protected/number of mice tested (converted)

% inhibition of control specific binding [3]	number of metabolites found after incubation with HLMs [4]	metabolic pathway of metabolite M1 ([4]; MS supported by MetaSite)	metabolic pathway of metabolite M2 ([4]; MS supported by MetaSite)	metabolic pathway of metabolite M3 ([4]; MS supported by MetaSite)	plasma protein binding—KD [5]	SMILES	responders at 100 mg/kg [1, 6]	responders at 100 mg/kg [1, 7]	ED50 [1]	mice in which both fore- and hindlimb tonus were completely inhibited ([2]; 12 mice)	mice in which hindlimb tonus (only) was diminished/inhibited ([2]; 12 mice)	seizure threshold for generalized clonic seizure with loss of righting reflex ([2]; 30 min before ivPTZ)	seizure threshold for the first myoclonic twitch ([2]; 30 min before ivPTZ)	threshold for forelimb tonus ([2]; 30 min before ivPTZ)
–6.9 (100) %	three	double dehydrogenation	hydroxylation	double dehydrogenation	1260.0 µM	CC(=O)NC(C)C(=O)N1CCN(c2cccc(OC(F)(F)F)c2)CC1 (stereo not shown) [Compound 28, N-(1-oxo-1-(4-(3-(Trifluoromethoxy)phenyl)piperazin-1-yl)propan-2-yl)acetamide]	100%	100%	12.1 mg/kg	9 out of 12	3 mice	significantly raised	significantly raised	–
4.5 (100) %	two	dehydrogenation and oxidation	dehydrogenation and oxidation	–	1670.0 µM	CC(=O)NC(C)C(=O)N1CCN(c2cccc(C(F)(F)F)c2)CC1 (stereo not shown) [Compound 26, N-(1-oxo-1-(4-(3-(Trifluoromethyl)phenyl)piperazin-1-yl)propan-2-yl)acetamide]	100%	100%	15.6 mg/kg	–	10 out of 12	significantly raised	significantly raised	did not significantly affect
